Experimental data taken from US20220204509A1, “PYRIMIDO FIVE-MEMBERED HETEROCYCLIC COMPOUND AND USE THEREOF AS MUTANT IDH2 INHIBITOR” (EPITAS BIOSCIENCES (SHANGHAI) CO., LTD., priority 2019, published 2022).
Positions count from the first letter of the chain named.

Columns and labels:
IDH2/WT = molecular target: T1, IDH2/WT (Homo sapiens, UniProt P48735); test: Determination of the selectivity of compounds to wild-type IDH2 (IDH2/WT); format: biochemical; details: Inhibitory activity on IDH2/WT; pre-incubated at 25° C. for 16 hours
T1 construct: made in house; host or cells: E. coli
T1 sequence (P48735 40-452): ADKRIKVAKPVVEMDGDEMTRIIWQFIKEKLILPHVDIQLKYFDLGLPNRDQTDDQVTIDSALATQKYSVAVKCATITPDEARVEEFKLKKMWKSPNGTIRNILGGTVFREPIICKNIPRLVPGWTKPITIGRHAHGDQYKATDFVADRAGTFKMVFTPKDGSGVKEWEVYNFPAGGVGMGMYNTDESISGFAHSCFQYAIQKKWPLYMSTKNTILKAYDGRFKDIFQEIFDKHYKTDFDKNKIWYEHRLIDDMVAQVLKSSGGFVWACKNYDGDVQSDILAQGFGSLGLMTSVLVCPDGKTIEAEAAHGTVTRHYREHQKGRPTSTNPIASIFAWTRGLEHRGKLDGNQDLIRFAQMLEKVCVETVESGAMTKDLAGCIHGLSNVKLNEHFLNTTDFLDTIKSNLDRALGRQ
Procedure: The compound was incubated with IDH2/WT and NADP, and then the reaction was initiated by adding isocitrate. After a certain time of reaction under linear conditions, lipoamide dehydrogenase and resazurin were added to detect the amount of fluorescent substances. In this experiment, NADP was reduced to NADPH. The latter reduced resazurin to highly fluorescent resorufin under the action of lipoamide dehydrogenase. The production of resorufin was detected to quantify the amount of cofactor NADPH generated after a specific reaction time, so as to calculate the compound's inhibitory effect on IDH2/WT.
Specifically, in a 96-well plate, in a total reaction volume of 50 μL, a mixture of 0.6 nM IDH2/WT, serially diluted inhibitors, and 50 μM NADP in a reaction buffer containing Tris-HCl 20 mM (pH 7.5), 150 mM NaCl, 10 mM MgCl2, 10% Glycerol, 0.03% BSA, and 2.5 mM β-mercaptoethanol, was pre-incubated at 25° C. for 16 hours. Isocitrate was added to 50 μM and the reaction was carried out at 25° C. for 30 minutes. Then 25 μL of a mixed solution (lipoamide dehydrogenase 36 μg/mL, resazurin 30 μM) prepared with the above reaction buffer was added to convert resazurin to resorufin to measure the NADPH produced. After 10 minutes of incubation at 25° C., the fluorescence value was measured by Tecan INFINITE F FLEX under Ex544/Em590. The enzyme activity was measured at 10 concentrations for each compound, and multiple background holes without enzyme and full enzyme activity holes without compound were set up in the reaction. The concentration of dimethyl sulfoxide in the system was less than or equal to 2%. The value of IC50 was obtained by the formula: Y=100/(1+10^((Log IC50−X)*HillSlope)) using XLFit5 software (IDBS Software). In the method, the multi-well plate was purchased from Thermo Fisher Scientific, NADP, α-KG, lipoamide dehydrogenase, and resazurin were purchased from Shenggong Bioengineering Co., Ltd., and IDH2/WT was obtained by purification after E. coli overexpression.

IDH2/R140Q [1] = molecular target: T2, IDH2/R140Q (Homo sapiens, UniProt P48735, R140Q); test: Inhibition of mutant IDH2 activity at the cell level (extracellular 2-HG, U87MG overexpressing IDH2/R140Q); format: cell-based
T2 sequence (P48735 40-452 R140Q): T1 sequence (P48735 40-452) with R101Q
Procedure: 2-hydroxyglutarate dehydrogenase (2HGDH) can reduce NAD+ to NADH in the presence of 2-HG. The latter can be quantitatively detected by diaphorase and its substrate Resazurin.
The glioma cells U87MG overexpressing IDH2/R140Q mutation were cultured in 1% sodium pyruvate high-sugar MEM, 10% FBS, and placed in a CO2 incubator (37° C., 5% CO2, 95% air) for cultivation.
The cells were digested with trypsin and seeded in a 96-well plate at a density of 1×10^4 with a medium of 200 μL and cultured in a 37° C. incubator overnight. The next day, the test compound was added to a final concentration of 0.1% for DMSO. […] The protein and other components in the medium that may interfere with the results were filtered, and the follow-up method was used to detect the content of 2-HG. 50 uL CellTiter-Glo (purchased from Promega) was added to the 96-well plate with the remaining 100 μL of medium to detect cell survival;
Extracellular 2-HG detecting system:
(1) 50 μL reaction system: reaction buffer (50 mM Tris pH7.5, 100 mM NaCl, 20 mM MgCl2, 0.05% BSA), in which the final concentration of NAD+ was 40 μM, the final concentration of 2HGDH was 20 nM, and the test sample was added to 5 μL of medium; the reaction solution was mixed and centrifuged, and the reaction was carried out for 1 hour at 25° C. in the dark;
Preparation of 2-HG standard curve: a 2-HG stock solution was diluted to 20 μM with reaction buffer, and a 2-fold gradient diluting was performed for a total of 6 points. Afterwards, the above-mentioned 2-HG was measured according to the extracellular 2-HG detecting system, and a standard curve was calculated and drawn.
Calculation of extracellular 2-HG content:
The fluorescence value obtained in the extracellular 2-HG detecting system was calculated using the 2-HG standard curve to calculate the content of 2-HG in the medium, and DMSO was used as a negative control to calculate the compound's inhibition against IDH2/R140Q mutation producing 2-HG activity.

IDH2/R140Q [2] = molecular target: T2, IDH2/R140Q; test: Determination of the inhibitory activity of the compounds on IDH2/R140Q (NADPH reduction, resazurin/lipoamide dehydrogenase detection); format: biochemical; parameters: purchased Abcam ab198153
Procedure: In this example, the inhibitory activity of a compound on IDH2/R140Q was determined by measuring the reduction of the cofactor NADPH. The compound was incubated with IDH2/R140Q and NADPH, and then the reaction was initiated by adding α-KG. After a certain time of reaction under linear conditions, lipoamide dehydrogenase and the corresponding substrate resazurin were added for detection. Lipoamide dehydrogenase terminated the IDH2/R140Q reaction bγ subtracting the available cofactor NADPH. It oxidized NADPH to NADP, and reduced resazurin to highly fluorescent resorufin. The production of resorufin was detected to quantify the amount of cofactor NADPH remaining after a specific reaction time.
Then 25 μL of a stop mixed solution (lipoamide dehydrogenase 36 μg/mL, resazurin 30 μM) prepared with the above reaction buffer was added to convert resazurin to resorufin to measure the remaining NADPH. After 10 minutes of incubation at 25° C., the fluorescence value was measured by Tecan […] […] The enzyme activity was measured at 10 concentrations for each compound, and multiple background holes without enzyme and full enzyme activity holes without compound were set up in the reaction. The concentration of dimethyl sulfoxide in the system was less than or equal to 2%. […] The multi-well plate in this example was purchased from Thermo Fisher Scientific, NADPH, α-KG, lipoamide dehydrogenase, and resazurin were purchased from Shenggong Bioengineering Co., Ltd., and IDH2/R140Q was purchased from Abcam (ab198153).

[3] = U87MG overexpressing IDH2/R140Q, 2-HG in medium after 24 hours of culturing with compound, read-out: IC50
[4] = IDH2/R140Q inhibitory activity, pre-incubated at 25° C. for 16 hours, read-out: IC50
[5] = IDH2/R140Q inhibitory activity, cells marked (1 h), read-out: IC50

SMILES | IC50 (IDH2/WT) | IC50 (IDH2/R140Q [1]; [3]) | IC50 (IDH2/R140Q [2]; [4]) | IC50 (IDH2/R140Q [2]; [5]) | IC50 (IDH2/R140Q [1]) | IC50 (IDH2/R140Q [2])
Cc1cc2c(NC3CC3)nc(-c3ccccc3)nc2[nH]1 [Compound 23, N-cyclopropyl-6-methyl-2-phenyl-7H-pyrrolo[2,3-d]pyrimidin-4-amine] | > 5 µM | 0.1 to 1 µM | 0.1 to 1 µM |  |  | 
Cc1cc2c(NC3CCCC3)nc(-c3ccccc3)nc2[nH]1 [Compound 36, N-cyclopentyl-6-methyl-2-phenyl-7H-pyrrolo[2,3-d]pyrimidin-4-amine] | > 5 µM | 0.1 to 1 µM | < 0.1 µM |  |  | 
Cc1cc2c(NC3CC3)nc(-c3ccccc3F)nc2[nH]1 [Compound 28, N-cyclopropyl-2-(2-fluorophenyl)-6-methyl-7H-pyrrolo[2,3-d]pyrimidin-4-amine] | > 5 µM | < 0.1 µM | 0.1 to 1 µM |  |  | 
CC(C)Nc1nc(-c2ccccc2)nc2[nH]c(-c3ccccc3)cc12 [Compound 46, N-isopropyl 2,6-diphenyl-7H-pyrrolo[2,3-d]pyrimidin-4-amine] |  | > 10 µM | > 10 µM |  |  | 
Cc1cccc(-c2nc(NC3CC3)c3cc(C)[nH]c3n2)c1 [Compound 42, N-cyclopropyl-6-methyl-2-(m-tolyl)-7H-pyrrolo[2,3-d]pyrimidin-4-amine] |  | 0.1 to 1 µM | 0.1 to 1 µM |  |  | 
Cc1cc2c(NC3CC3)nc(-c3ccc(F)cc3)nc2[nH]1 [Compound 38, N-cyclopropyl-2-(4-fluorophenyl)-6-methyl-7H-pyrrolo[2,3-d]pyrimidin-4-amine] |  | 1 to 10 µM | 1 to 10 µM |  |  | 
Cc1cc2c(-c3ccccc3)nc(Nc3ccccc3)nc2[nH]1 [Compound 7, 6-methyl-N,4-diphenyl-7H-pyrrolo[2,3-d]pyrimidin-2-amine] |  | 1 to 10 µM | 1 to 10 µM |  |  | 
CC(C)n1cnc2c(Nc3ccnc(C(F)(F)F)c3)nc(-c3ccncc3)nc21 [Compound 9, 9-isopropyl-2-(pyridin-4-yl)-N-(2-(trifluoromethyl)pyridin-4-yl)-9H-purin-6-amine] |  | > 10 µM |  | > 10 µM |  | 
Cc1cc2c(NC(C)C)nc(-c3ccncc3)nc2[nH]1 [Compound 18, N-isopropyl-6-methyl-2-(pyridin-4-yl)-7H-pyrrolo[2,3-d]pyrimidin-4-amine] |  | > 10 µM | > 10 µM |  |  | 
CCOC(=O)Cc1cc2c(Nc3ccccc3)nc(-c3ccccc3)nc2[nH]1 [Compound 44] |  | 1 to 10 µM | 1 to 10 µM |  |  | 
CC(C)(O)CNc1nc(Nc2ccnc(C(F)(F)F)c2)nc(-c2cccc(C(F)(F)F)n2)n1 [AG-221, Enasidenib, reference compound] |  |  |  |  | < 0.1 µM | < 0.1 µM
CC(C)n1cnc2c(Nc3ccnc(C(F)(F)F)c3)nc(-c3cccnc3)nc21 [Compound 5, 9-isopropyl-2-(pyridin-3-yl)-N-(2-(trifluoromethyl)pyridin-4-yl)-9H-purin-6-amine] |  | > 10 µM |  | > 10 µM |  | 
Cc1cc2c(NCC3CC3)nc(-c3ccccc3)nc2[nH]1 [Compound 29, N-(cyclopropylmethyl)-6-methyl-2-phenyl-7H-pyrrole[2,3-d]pyrimidin-4-amine] |  | 1 to 10 µM | 1 to 10 µM |  |  | 
Cn1cnc2c(Nc3ccccc3)nc(-c3ccccc3)nc21 [Compound 24, 9-methyl-N,2-diphenyl-9H-purin-6-amine] |  | > 10 µM | > 10 µM |  |  | 
Cc1cc2c(NC3CC3)nc(-c3ccc(O)cc3)nc2[nH]1 [Compound 47, 4-(4-(cyclopropylamino)-6-methyl-7H-pyrrolo[2,3-d]pyrimidin-2-yl)phenol] |  | 0.1 to 1 µM | 0.1 to 1 µM |  |  | 
Cc1cc2c(NCC(C)C)nc(-c3ccccc3)nc2[nH]1 [Compound 39, N-isobutyl-6-methyl-2-phenyl-7H-pyrrolo[2,3-d]pyrimidin-4-amine] |  | 0.1 to 1 µM | 0.1 to 1 µM |  |  | 
Cc1cc2c(NC3CC3)nc(-c3cccc(F)c3)nc2[nH]1 [Compound 34, N-cyclopropyl-2-(3-fluorophenyl)-6-methyl-7H-pyrrolo[2,3-d]pyrimidin-4-amine] |  | 0.1 to 1 µM | 1 to 10 µM |  |  | 
Cc1cc2c(NC3CCCCC3)nc(-c3ccccc3)nc2[nH]1 [Compound 37, N-cyclohexyl-6-methyl-2-phenyl-7H-pyrrolo[2,3-d]pyrimidin-4-amine] |  | 1 to 10 µM | 1 to 10 µM |  |  | 
CC(C)n1cnc2c(Nc3ccnc(C(F)(F)F)c3)nc(-c3cccc(C(F)(F)F)n3)nc21 [Compound 4, 9-isopropyl-2-(6-(trifluoromethyl)pyridin-2-yl)-N-(2-(trifluoromethyl)pyridin-4-yl)-9H-purine-6-amine] |  | > 10 µM |  | > 10 µM |  | 
Cc1cc2c(NC3CCCC3)nc(-c3ccccc3F)nc2[nH]1 [Compound 51, N-cyclopentyl-2-(2-fluorophenyl)-6-methyl-7H-pyrrolo[2,3-d]pyrimidin-4-amine] |  | < 0.1 µM | < 0.1 µM |  |  | 
